Assay results taken from patent US8394954B2, “Benzophenone hybrids as anticancer agents and processes for the preparation thereof” (Council of Scientific & Industrial Research, priority 2007, dated 2013).

Experiments:
CNS cancer cell lines = experiment: NCI in vitro anticancer screen, CNS panel; type: cell-based, human; settings: Homo sapiens, average of six to nine cell lines, read-out: Log GI50 (concentration in mol/L causing 50% growth inhibition) (converted)
Method: (§1) Compounds described herein were evaluated for in vitro anticancer activity. Particularly the 6a, 6b, 6d, 6h, 8a and 8b compounds were evaluated for in vitro anticancer activity against sixty human tumor cells derived from nine cancer types (leukemia, non-small-cell lung, colon, […], ovarian, prostate, and breast cancer) as shown in (Table 2 and 3). For the compound, dose response curves for each cell line were measured at a minimum of five concentrations at 10 fold dilutions. A protocol of 48 h continuous drug exposure was used and a sulforhodamine B (SRB) protein assay was used to estimate cell viability or growth. The concentration causing 50% cell growth inhibition (GI50), total cell growth inhibition (TGI 0% growth) and 50% cell death (LC50, −50% growth) compared with the control was calculated.

[1] = tested on: ovarian cancer OVCAR-4 cell line; experiment: NCI in vitro anticancer screen, OVCAR-4; type: cell-based; settings: Homo sapiens
Method: as §1
(§2) In the non-small cell lung cancer panel, the growth of HOP-62, […] were affected by compound 6d with G150 values as 11.7, 13.9 and 17.2 nM respectively. […] In vitro cytotoxicity of compounds 6d, 8a, and 8b in selected cancer cell lines has been illustrated in Table 3. The average G150 values for each cancer panel of compounds 6a, 6b, 6d, 6e, 8a and 8b have been illustrated in Table 2.

[2] = tested on: sixty human tumor cells derived from nine cancer types; experiment: NCI in vitro anticancer screen, 48 h exposure, SRB assay, mean over all lines; type: cell-based
Method: as §1

[3] = tested on: Nonsmall-cell-lung cancer cell lines; experiment: NCI in vitro anticancer screen, non-small-cell lung panel; type: cell-based, human; settings: Homo sapiens, average of six to nine cell lines, read-out: Log GI50 (concentration in mol/L causing 50% growth inhibition) (converted)
Method: as §1

[4] = tested on: human cancer cell lines of colon (Colo205), lung (Hop-62), cervix (SiHa), prostate (DU145, PC3), oral (DWD, HT1080), and breast (MCF7, Zr-75-1) origin; experiment: In vitro evaluation of cytotoxic activity in selected human cancer cell lines, 48 h exposure; type: cell-based; settings: 48 h continuous drug exposure
Method: In vitro evaluation of cytotoxic activity. Compounds 6a, 6b, 6d, 6e, 8a and 8b were evaluated for in vitro anticancer activity against nine human tumor cells derived from six cancer types (colon, prostate, oral, lung, cervix and breast cancer) as shown in Table 2. […] Compounds 6a, 6b, 6d, 6e, 8a and 8b have been evaluated for their in vitro cytotoxicity in selected human cancer cell lines of colon (Colo205), lung (Hop-62), cervix (SiHa), prostate (DU145, PC3), oral (DWD, HT1080), and breast (MCF7, Zr-75-1) origin. A protocol of 48 h continuous drug exposure has been used and an […] has been used to estimate cell viability or growth. The results are expressed as percent of cell growth determined relative to that of untreated control cells

Breast cancer cell lines = experiment: NCI in vitro anticancer screen, breast panel; type: cell-based, human; settings: Homo sapiens, average of six to nine cell lines, read-out: Log GI50 (concentration in mol/L causing 50% growth inhibition) (converted)
Method: as §1

[5] = tested on: ovarian cancer OVCAR-8 cell line; experiment: NCI in vitro anticancer screen, OVCAR-8; type: cell-based; settings: Homo sapiens
Method: as §1, §2

[6] = tested on: HOP-62, NCI-H23 cell lines; experiment: NCI in vitro anticancer screen, non-small cell lung lines; type: cell-based; settings: Homo sapiens, non-small cell lung cancer panel
Method: as §1, §2

Colon cancer cell lines = experiment: NCI in vitro anticancer screen, colon panel; type: cell-based, human; settings: Homo sapiens, average of six to nine cell lines, read-out: Log GI50 (concentration in mol/L causing 50% growth inhibition) (converted)
Method: as §1

[7] = tested on: ovarian cancer SK-OV-3 cell line; experiment: NCI in vitro anticancer screen, SK-OV-3; type: cell-based; settings: Homo sapiens
Method: as §1, §2

[8] = tested on: colon cancer HCT-116 cell line; experiment: NCI in vitro anticancer screen, HCT-116; type: cell-based; settings: Homo sapiens
Method: as §1, §2

[9] = tested on: Melanoma cancer cell lines; experiment: NCI in vitro anticancer screen, melanoma panel; type: cell-based, human; settings: Homo sapiens, average of six to nine cell lines, read-out: Log GI50 (concentration in mol/L causing 50% growth inhibition) (converted)
Method: as §1

[10] = tested on: Leukemia cancer cell lines; experiment: NCI in vitro anticancer screen, leukemia panel; type: cell-based, human; settings: Homo sapiens, average of six to nine cell lines, read-out: Log GI50 (concentration in mol/L causing 50% growth inhibition) (converted)
Method: as §1

[11] = tested on: Ovarian cancer cell lines; experiment: NCI in vitro anticancer screen, ovarian panel; type: cell-based, human; settings: Homo sapiens, average of six to nine cell lines, read-out: Log GI50 (concentration in mol/L causing 50% growth inhibition) (converted)
Method: as §1

Renal cancer cell lines = experiment: NCI in vitro anticancer screen, renal panel; type: cell-based, human; settings: Homo sapiens, average of six to nine cell lines, read-out: Log GI50 (concentration in mol/L causing 50% growth inhibition) (converted)
Method: as §1

[12] = tested on: duplex-form calf thymus DNA (CT-DNA); experiment: Thermal denaturation studies with CT-DNA; type: binding; settings: [BPD]:[DNA] molar ratio 1:5, CT-DNA 100 μM, ligand 20 μM, pH 7.00
Method: Compounds were subjected to thermal denaturation studies with duplex-form calf thymus DNA (CT-DNA). Working solutions in aqueous buffer (10 mM NaH2PO4/Na2HPO4, 1 mM Na2EDTA, pH 7.00+0.01) containing CT-DNA (100 μm in phosphate) and the BPD (20 μm) were prepared by addition of concentrated BPD solutions in DMSO to obtain a fixed [BPD]/[DNA] molar ratio of 1:5. The DNA-BPD solutions were incubated at 37° C. for 0, 18, and 36 h prior to analysis. Samples were monitored at 260 nm using a Beckman DU-7400 spectrophotometer fitted with high performance temperature controller, and heating was applied at 1° C. min-1 in the 40-90° C. range. DNA helix coil transition temperatures (Tm) were obtained from the maxima in the (dA260)/dT derivative plots. Results are given as the mean±standard deviation from three determinations and are corrected for the effects of DMSO co-solvent using a linear correction term. Drug-induced alterations in DNA melting behavior are given by: ΔTm=Tm(DNA+BPD)−Tm(DNA alone), where the Tm value for the BPD-free CT-DNA is 69.0±0.01.

[13] = tested on: colon cancer HCC-2988 cell line; experiment: NCI in vitro anticancer screen, HCC-2988; type: cell-based; settings: Homo sapiens
Method: as §1, §2

[14] = tested on: colon cancer KM12 cell line; experiment: NCI in vitro anticancer screen, KM12; type: cell-based; settings: Homo sapiens
Method: as §1, §2

[15] = tested on: Prostate cancer cell lines; experiment: NCI in vitro anticancer screen, prostate panel; type: cell-based, human; settings: Homo sapiens, average of six to nine cell lines, read-out: Log GI50 (concentration in mol/L causing 50% growth inhibition) (converted)
Method: as §1

[16] = tested on: CNS SF-295, SF-539, SNB-19 and SNB-75 cell lines; experiment: NCI in vitro anticancer screen, CNS lines; type: cell-based; settings: Homo sapiens; range over SF-295, SF-539, SNB-19 and SNB-75
Method: as §1, §2

[17] = tested on: renal and breast cancer panels; experiment: NCI in vitro anticancer screen, renal and breast panels; type: cell-based; settings: Homo sapiens; range over renal and breast cancer panels
Method: as §1, §2

[18] = tested on: ovarian cancer OVCAR-5 cell line; experiment: NCI in vitro anticancer screen, OVCAR-5; type: cell-based; settings: Homo sapiens
Method: as §1, §2

With `O=C(CN1CCN(c2ncnc3ccccc23)CC1)Nc1ccc(Cl)cc1C(=O)c1ccccc1Cl` [Compound 6d, N1-4-chloro-2-(2-chlorobenzoyl)phenylJ-2-[4-(4-quinazolinyl)piperazino]acetamide] the GI50 (CNS cancer cell lines) was 224 nM, the GI50 [1] was 30.6 nM and the GI50 ([2]; Homo sapiens, wide spectrum of activity against sixty cell lines in nine cell panels) was < 20000 nM. The “Log10LC50 mean graph midpoint (MG_MID)” value ([2]; human tumor cell lines, 48 h exposure, 50% cell death) was −4.62, the “Log10GI50 mean graph midpoint (MG_MID)” value ([2]; human tumor cell lines, 48 h exposure, 50% cell growth inhibition) was −6.82 and the “Log10TGI mean graph midpoint (MG_MID)” value ([2]; human tumor cell lines, 48 h exposure, total cell growth inhibition) was −6.56. The GI50 [3] was 389 nM, the “cytotoxicity against some cancer cell lines” value [4] was “promising cytotoxicity” and the GI50 (Breast cancer cell lines) was 178 nM. The GI50 [5] was 30.5 nM, the GI50 [6] was 11.7 nM and the GI50 (Colon cancer cell lines) was 229 nM. For the same compound, the GI50 [7] was 78.6 nM, the GI50 [8] was 11.2 nM and the GI50 [9] was 204 nM. It also gave a GI50 [10] of 151 nM, a GI50 [11] of 219 nM and a GI50 (Renal cancer cell lines) of 214 nM. The “ΔTm after incubation at 37° C. for 0 h” value ([12]; 0 h) was 1.5 °C, the “ΔTm after incubation at 37° C. for 18 h” value ([12]; 18 h) was 1.9 °C and the “ΔTm after incubation at 37° C. for 36 h” value ([12]; 36 h) was 2.7 °C. For the same compound, the GI50 [13] was 11.6 nM, the GI50 [14] was 11.4 nM and the GI50 [15] was 398 nM. It also gave a GI50 [16] of 11.6 to 24.2 nM, a GI50 [17] of 11.6 to 43.4 nM and a GI50 [18] of 14.9 nM.
